This is an account of results in patent US11572590B2, “Methods for evaluating tumor cell spheroids using 3D microfluidic cell culture device” (Dana-Farber Cancer Institute, Inc., priority 2017, dated 2023).

Holding throughout (assay): SelectScreen Kinase Profiling, single point inhibition and IC50 for off-target kinases
Type in all cases: biochemical

The target in assay [1] is off-target kinases (Homo sapiens, UniProt P10721, Y823D). Conditions: KIT Y823D, LanthaScreen Binding. For orientation: In TR-FRET formats the signal depends on donor and acceptor labels being close together.
Sequence of off-target kinases (Homo sapiens, UniProt P10721, Y823D) (P10721 26-976 Y823D): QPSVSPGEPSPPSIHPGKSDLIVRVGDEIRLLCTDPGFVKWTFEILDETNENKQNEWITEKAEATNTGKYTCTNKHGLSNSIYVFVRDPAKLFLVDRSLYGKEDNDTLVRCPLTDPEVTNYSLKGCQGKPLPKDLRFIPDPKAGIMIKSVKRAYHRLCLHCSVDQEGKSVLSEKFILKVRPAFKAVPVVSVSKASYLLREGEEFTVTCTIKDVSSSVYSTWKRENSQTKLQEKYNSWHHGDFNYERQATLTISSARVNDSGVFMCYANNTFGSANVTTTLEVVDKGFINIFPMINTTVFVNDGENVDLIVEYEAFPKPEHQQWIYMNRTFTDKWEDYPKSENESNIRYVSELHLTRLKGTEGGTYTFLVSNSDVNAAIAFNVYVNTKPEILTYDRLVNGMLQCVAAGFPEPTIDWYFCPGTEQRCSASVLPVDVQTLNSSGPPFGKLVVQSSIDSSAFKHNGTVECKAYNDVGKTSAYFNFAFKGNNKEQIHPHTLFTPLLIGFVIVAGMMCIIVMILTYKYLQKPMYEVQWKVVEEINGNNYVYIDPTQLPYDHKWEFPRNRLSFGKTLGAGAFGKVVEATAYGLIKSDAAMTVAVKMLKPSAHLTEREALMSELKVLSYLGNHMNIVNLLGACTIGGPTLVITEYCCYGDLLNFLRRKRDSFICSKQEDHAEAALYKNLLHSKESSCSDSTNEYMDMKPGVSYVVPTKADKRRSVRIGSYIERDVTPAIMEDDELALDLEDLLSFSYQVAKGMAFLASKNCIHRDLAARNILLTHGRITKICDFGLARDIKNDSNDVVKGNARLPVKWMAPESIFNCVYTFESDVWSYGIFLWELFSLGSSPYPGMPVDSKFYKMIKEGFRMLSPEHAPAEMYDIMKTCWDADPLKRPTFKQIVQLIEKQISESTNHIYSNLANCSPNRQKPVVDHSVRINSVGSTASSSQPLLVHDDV
Assay [2] deals with off-target kinases (Homo sapiens, UniProt Q04912). Conditions: MST1R (RON), ZLYTE, ATP Km app.
Sequence of off-target kinases (Homo sapiens, UniProt Q04912) (Q04912 25-1400): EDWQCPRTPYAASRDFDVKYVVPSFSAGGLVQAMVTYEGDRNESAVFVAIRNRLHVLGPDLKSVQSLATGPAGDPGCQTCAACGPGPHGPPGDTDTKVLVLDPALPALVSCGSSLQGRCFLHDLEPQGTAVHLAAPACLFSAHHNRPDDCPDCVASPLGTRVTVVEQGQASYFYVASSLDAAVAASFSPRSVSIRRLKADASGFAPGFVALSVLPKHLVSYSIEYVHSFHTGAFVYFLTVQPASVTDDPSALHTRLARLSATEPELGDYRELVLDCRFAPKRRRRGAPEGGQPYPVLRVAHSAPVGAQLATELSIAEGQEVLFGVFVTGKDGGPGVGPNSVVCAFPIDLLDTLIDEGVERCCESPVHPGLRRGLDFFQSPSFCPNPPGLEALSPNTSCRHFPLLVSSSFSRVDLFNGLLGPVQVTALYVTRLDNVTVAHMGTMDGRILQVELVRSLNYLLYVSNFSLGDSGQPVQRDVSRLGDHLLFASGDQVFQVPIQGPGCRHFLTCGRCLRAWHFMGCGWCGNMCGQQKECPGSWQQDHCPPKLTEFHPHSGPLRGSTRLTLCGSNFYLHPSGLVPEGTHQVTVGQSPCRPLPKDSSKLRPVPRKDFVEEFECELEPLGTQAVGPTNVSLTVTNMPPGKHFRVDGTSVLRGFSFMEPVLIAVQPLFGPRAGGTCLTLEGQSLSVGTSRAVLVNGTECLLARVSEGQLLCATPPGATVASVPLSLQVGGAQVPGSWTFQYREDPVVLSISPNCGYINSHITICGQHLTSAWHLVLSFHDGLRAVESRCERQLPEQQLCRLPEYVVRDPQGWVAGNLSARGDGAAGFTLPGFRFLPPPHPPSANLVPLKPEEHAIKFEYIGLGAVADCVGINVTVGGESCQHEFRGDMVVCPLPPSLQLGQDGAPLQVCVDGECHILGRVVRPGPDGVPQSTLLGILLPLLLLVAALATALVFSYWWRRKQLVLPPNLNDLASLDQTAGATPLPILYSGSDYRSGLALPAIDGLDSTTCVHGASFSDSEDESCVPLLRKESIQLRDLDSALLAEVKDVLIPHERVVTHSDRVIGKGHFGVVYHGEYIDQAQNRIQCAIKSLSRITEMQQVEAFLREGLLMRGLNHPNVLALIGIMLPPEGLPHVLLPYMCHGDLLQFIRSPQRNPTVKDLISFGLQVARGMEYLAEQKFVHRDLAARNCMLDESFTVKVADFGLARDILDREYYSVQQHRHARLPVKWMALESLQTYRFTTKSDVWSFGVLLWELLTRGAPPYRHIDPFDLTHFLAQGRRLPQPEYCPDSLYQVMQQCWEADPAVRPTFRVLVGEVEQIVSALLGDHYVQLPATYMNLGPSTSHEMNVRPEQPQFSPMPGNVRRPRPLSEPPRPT
Assay [3] deals with off-target kinases (Homo sapiens, UniProt Q9UM73, L1196M). Conditions: ALKL1196M (mutant), LanthaScreen Binding.
Sequence of off-target kinases (Homo sapiens, UniProt Q9UM73, L1196M) (Q9UM73 19-1620 L1196M): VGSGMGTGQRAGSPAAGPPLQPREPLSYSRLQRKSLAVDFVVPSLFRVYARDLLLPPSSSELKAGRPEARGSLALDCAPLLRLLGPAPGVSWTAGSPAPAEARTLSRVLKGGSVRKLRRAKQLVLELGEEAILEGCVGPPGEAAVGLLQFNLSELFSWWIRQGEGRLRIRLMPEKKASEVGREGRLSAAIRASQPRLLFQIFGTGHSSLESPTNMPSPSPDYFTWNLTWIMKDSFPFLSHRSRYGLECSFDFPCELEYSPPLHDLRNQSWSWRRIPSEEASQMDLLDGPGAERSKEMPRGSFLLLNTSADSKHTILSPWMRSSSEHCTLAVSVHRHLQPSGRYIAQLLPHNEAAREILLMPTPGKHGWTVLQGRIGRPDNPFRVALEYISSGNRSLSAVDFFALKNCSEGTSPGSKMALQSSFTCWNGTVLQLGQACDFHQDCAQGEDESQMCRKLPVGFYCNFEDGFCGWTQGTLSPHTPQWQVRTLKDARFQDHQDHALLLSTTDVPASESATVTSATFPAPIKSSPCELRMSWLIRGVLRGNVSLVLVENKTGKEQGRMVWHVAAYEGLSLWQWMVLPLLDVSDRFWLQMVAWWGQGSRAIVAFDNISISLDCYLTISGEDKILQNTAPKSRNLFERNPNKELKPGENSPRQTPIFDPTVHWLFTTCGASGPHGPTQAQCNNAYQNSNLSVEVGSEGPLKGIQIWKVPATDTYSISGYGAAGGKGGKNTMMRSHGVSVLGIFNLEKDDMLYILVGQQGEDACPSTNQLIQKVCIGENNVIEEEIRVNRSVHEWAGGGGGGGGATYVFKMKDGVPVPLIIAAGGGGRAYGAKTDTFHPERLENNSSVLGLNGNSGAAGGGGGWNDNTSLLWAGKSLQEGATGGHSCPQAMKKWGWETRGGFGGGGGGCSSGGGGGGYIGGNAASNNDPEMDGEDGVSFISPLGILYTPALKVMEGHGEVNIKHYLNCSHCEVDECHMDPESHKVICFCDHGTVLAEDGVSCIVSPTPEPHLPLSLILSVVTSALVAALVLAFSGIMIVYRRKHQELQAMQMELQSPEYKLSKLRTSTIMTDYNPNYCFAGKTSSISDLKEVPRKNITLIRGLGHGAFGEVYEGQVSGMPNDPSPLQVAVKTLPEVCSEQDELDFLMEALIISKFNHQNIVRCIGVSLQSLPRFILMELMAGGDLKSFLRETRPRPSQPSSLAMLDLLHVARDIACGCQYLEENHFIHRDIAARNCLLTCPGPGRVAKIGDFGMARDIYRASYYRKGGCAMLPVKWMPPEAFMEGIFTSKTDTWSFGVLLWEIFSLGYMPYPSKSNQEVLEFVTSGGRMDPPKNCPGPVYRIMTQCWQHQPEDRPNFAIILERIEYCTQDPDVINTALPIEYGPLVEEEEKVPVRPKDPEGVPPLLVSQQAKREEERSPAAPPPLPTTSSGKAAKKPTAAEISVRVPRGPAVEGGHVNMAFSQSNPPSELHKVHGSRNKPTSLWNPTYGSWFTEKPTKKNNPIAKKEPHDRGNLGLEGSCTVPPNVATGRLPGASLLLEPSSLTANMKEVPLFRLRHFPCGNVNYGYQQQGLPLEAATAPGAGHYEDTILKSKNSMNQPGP
In assay [4] the target is T1, off-target kinases (Homo sapiens, UniProt Q9UF33).
T1 sequence (Q9UF33 23-1036): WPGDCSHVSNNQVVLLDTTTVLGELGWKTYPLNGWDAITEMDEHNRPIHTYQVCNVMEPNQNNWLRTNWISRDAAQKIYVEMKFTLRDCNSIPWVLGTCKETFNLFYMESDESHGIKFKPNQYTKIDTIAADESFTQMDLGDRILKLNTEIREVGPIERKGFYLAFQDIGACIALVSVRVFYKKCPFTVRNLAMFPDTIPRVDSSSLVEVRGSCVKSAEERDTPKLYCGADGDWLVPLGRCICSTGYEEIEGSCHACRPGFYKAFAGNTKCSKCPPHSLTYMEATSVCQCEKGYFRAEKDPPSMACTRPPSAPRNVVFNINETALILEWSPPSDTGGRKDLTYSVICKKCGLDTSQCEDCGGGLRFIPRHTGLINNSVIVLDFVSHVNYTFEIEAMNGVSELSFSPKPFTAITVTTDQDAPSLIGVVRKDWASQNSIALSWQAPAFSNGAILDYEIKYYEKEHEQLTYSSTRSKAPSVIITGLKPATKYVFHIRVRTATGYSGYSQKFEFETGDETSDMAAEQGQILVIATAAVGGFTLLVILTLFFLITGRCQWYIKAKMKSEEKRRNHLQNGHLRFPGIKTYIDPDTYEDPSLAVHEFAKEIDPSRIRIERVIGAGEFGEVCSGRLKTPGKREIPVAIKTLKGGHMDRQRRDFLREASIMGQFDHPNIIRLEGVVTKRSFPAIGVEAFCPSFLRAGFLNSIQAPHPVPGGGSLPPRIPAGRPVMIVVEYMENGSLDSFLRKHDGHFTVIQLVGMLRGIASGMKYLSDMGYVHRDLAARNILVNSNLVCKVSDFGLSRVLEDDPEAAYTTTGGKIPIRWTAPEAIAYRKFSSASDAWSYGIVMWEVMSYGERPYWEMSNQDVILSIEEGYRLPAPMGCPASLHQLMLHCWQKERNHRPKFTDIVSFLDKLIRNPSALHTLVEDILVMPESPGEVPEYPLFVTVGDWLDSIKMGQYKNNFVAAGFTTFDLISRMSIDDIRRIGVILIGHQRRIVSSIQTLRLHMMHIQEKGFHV
The conditions noted are these: EPHA6, LanthaScreen Binding.

Like-named read-outs stand apart in the source and are kept apart here.

By inhibition is commonly meant the drop in the measured response relative to a control, in per cent. For `N#Cc1cc(-c2ncnc(Nc3ccc(N4CCN(C5COC5)CC4)cc3)n2)ccc1OC1CCOCC1` [Compound 1, 5-(4-((4-(4-(oxetan-3-yl)piperazin-1-yl)phenyl)amino)-1,3,5-triazin-2-yl)-2-((tetrahydro-2H-pyran-4-yl)oxy)benzonitrile], the inhibition is 47% at off-target kinases [1] (read-out: % Inhibition 1); 59% on off-target kinases [1] (read-out: % Inhibition 2); 53% at off-target kinases [1] (read-out: % Inhibition Avg); 38% on off-target kinases [2] (read-out: % Inhibition 1); 38% at off-target kinases [2] (read-out: % Inhibition 2); 38% on off-target kinases [2] (read-out: % Inhibition Avg). Further, the inhibition worked out at 1% on off-target kinases [3] (read-out: % Inhibition 1); 9% at off-target kinases [3] (read-out: % Inhibition 2); 5% on off-target kinases [3] (read-out: % Inhibition Avg); 9% at off-target kinases [4] (read-out: % Inhibition 1); 20% on off-target kinases [4] (read-out: % Inhibition 2); 14% at off-target kinases [4] (read-out: % Inhibition Avg).
